# According to PubChem BioAssay (NCI):
#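 GI50 is the concentration that inhibits growth by half. TGI: concentration producing complete growth inhibition.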
# Key:
# Test in all cases: NCI tumour cell line growth inhibition, 384-well format
# [1] = tested on: MDA-MB-231 breast
# [2] = tested on: HOP-92 NSCLC
# [3] = tested on: BT-549 breast
# [4] = tested on: ACHN renal
# [5] = tested on: SF-295 CNS
# [6] = tested on: NCI-H322M lung
# [7] = tested on: OVCAR-4 ovarian
# [8] = tested on: MCF7 breast
# [9] = tested on: UO-31 renal
# [10] = tested on: HCC-2998 colon
# [11] = tested on: HL-60(TB) leukemia
# [12] = tested on: SR leukemia
# [13] = tested on: SK-MEL-5 melanoma
# [14] = tested on: PC-3 prostate
# [15] = tested on: DU-145 prostate
# [16] = tested on: CCRF-CEM leukemia
# [17] = tested on: SNB-19 CNS
# [18] = tested on: NCI-H23 lung
# [19] = tested on: OVCAR-3 ovarian
# [20] = tested on: MOLT-4 leukemia
# [21] = tested on: SK-MEL-2 melanoma
# [22] = tested on: OVCAR-8 ovarian
# [23] = tested on: T-47D breast
# [24] = tested on: NCI/ADR-RES ovarian
# [25] = tested on: SN12C renal
# [26] = tested on: IGROV1 ovarian
# [27] = tested on: UACC-257 melanoma
# [28] = tested on: KM12 colon
# [29] = tested on: NCI-H226 lung
# [30] = tested on: HCT-116 colon
# [31] = tested on: SK-MEL-28 melanoma
# [32] = tested on: MDA-MB-435 melanoma
# [33] = tested on: RXF 393 renal
# [34] = tested on: CAKI-1 renal
# [35] = tested on: A549 NSCLC
# [36] = tested on: SF-539 CNS
# [37] = tested on: RPMI-8226 leukemia
# [38] = tested on: SW-620 colon
# [39] = tested on: SF-268 CNS
# [40] = tested on: MDA-MB-468 breast
# [41] = tested on: HCT-15 colon
# [42] = tested on: M14 melanoma
# [43] = tested on: LOX IMVI melanoma
# [44] = tested on: K-562 leukemia
# [45] = tested on: A498 renal
# [46] = tested on: U251 glioblastoma
# [47] = tested on: 786-0 renal
# [48] = tested on: NCI-H460 NSCLC
# [49] = tested on: COLO 205 colon
# [50] = tested on: TK-10 renal
# [51] = tested on: MALME-3M melanoma
# [52] = tested on: HT29 colon
# [53] = tested on: SK-OV-3 ovarian
# [54] = tested on: NCI-H522 lung
# [55] = tested on: OVCAR-5 ovarian
# [56] = tested on: HOP-62 NSCLC
# [57] = tested on: UACC-62 melanoma
compound,measurement,setting,value
COc1ccc(-c2c(-c3ccc(C#N)c(F)c3)nc(N3CCC(N)CC3)n(C)c2=O)cc1F,GI50,[1],13.2 µM
same,TGI,[1],25.9 µM
same,GI50,[2],6.55 µM
same,TGI,[2],19.1 µM
same,GI50,[3],11.6 µM
same,TGI,[3],23.9 µM
same,GI50,[4],12.4 µM
same,TGI,[4],24.9 µM
same,GI50,[5],16.8 µM
same,TGI,[5],30.4 µM
same,GI50,[6],14.3 µM
same,TGI,[6],28.3 µM
same,GI50,[7],14.3 µM
same,TGI,[7],27.6 µM
same,GI50,[8],3.06 µM
same,TGI,[8],9 µM
same,GI50,[9],13.3 µM
same,TGI,[9],26.1 µM
same,GI50,[10],11 µM
same,TGI,[10],23 µM
same,GI50,[11],3.89 µM
same,TGI,[11],15.1 µM
same,GI50,[12],1.69 µM
same,TGI,[12],3.06 µM
same,GI50,[13],14.4 µM
same,TGI,[13],27.5 µM
same,GI50,[14],13.8 µM
same,TGI,[14],26.8 µM
same,GI50,[15],15.1 µM
same,TGI,[15],28.9 µM
same,GI50,[16],13 µM
same,TGI,[16],25.8 µM
same,GI50,[17],18 µM
same,TGI,[17],32.1 µM
same,GI50,[18],11.2 µM
same,TGI,[18],28.6 µM
same,GI50,[19],13.2 µM
same,TGI,[19],26 µM
same,GI50,[20],1.78 µM
same,TGI,[20],3.17 µM
same,GI50,[21],5.12 µM
same,TGI,[21],17.8 µM
same,GI50,[22],14.5 µM
same,TGI,[22],27.6 µM
same,GI50,[23],10.4 µM
same,TGI,[23],22.1 µM
same,GI50,[24],16.5 µM
same,TGI,[24],30.3 µM
same,GI50,[25],12.9 µM
same,TGI,[25],25.6 µM
same,GI50,[26],13.9 µM
same,TGI,[26],26.9 µM
same,GI50,[27],1.71 µM
same,TGI,[27],3.16 µM
same,GI50,[28],13.1 µM
same,TGI,[28],25.9 µM
same,GI50,[29],1.75 µM
same,TGI,[29],3.27 µM
same,GI50,[30],6.86 µM
same,TGI,[30],19.8 µM
same,GI50,[31],10.7 µM
same,TGI,[31],22.6 µM
same,GI50,[32],13.5 µM
same,TGI,[32],26.4 µM
same,GI50,[33],2.69 µM
same,TGI,[33],9.41 µM
same,GI50,[34],8.69 µM
same,TGI,[34],20.8 µM
same,GI50,[35],16.7 µM
same,TGI,[35],30.5 µM
same,GI50,[36],13.8 µM
same,TGI,[36],26.8 µM
same,GI50,[37],7.53 µM
same,TGI,[37],19.6 µM
same,GI50,[38],15.3 µM
same,TGI,[38],28.7 µM
same,GI50,[39],14.1 µM
same,TGI,[39],27.1 µM
same,GI50,[40],9.92 µM
same,TGI,[40],21.5 µM
same,GI50,[41],15.7 µM
same,TGI,[41],29.3 µM
same,GI50,[42],4.89 µM
same,TGI,[42],16.6 µM
same,GI50,[43],19.2 µM
same,TGI,[43],33.3 µM
same,GI50,[44],11.8 µM
same,TGI,[44],24.1 µM
same,GI50,[45],2.29 µM
same,TGI,[45],7.42 µM
same,GI50,[46],12.2 µM
same,TGI,[46],24.7 µM
same,GI50,[47],10.6 µM
same,TGI,[47],22.5 µM
same,GI50,[48],3.41 µM
same,TGI,[48],10.9 µM
same,GI50,[49],12 µM
same,TGI,[49],24.3 µM
same,GI50,[50],14.3 µM
same,TGI,[50],27.5 µM
same,GI50,[51],2.46 µM
same,TGI,[51],6.58 µM
same,GI50,[52],9.51 µM
same,TGI,[52],21.6 µM
same,GI50,[53],12 µM
same,TGI,[53],24.4 µM
same,GI50,[54],11.7 µM
same,TGI,[54],24 µM
same,GI50,[55],14.7 µM
same,TGI,[55],28.2 µM
same,GI50,[56],15.3 µM
same,TGI,[56],28.7 µM
same,GI50,[57],2.18 µM
same,TGI,[57],5.43 µM
